# Results taken from patent US9850225B2, “Compounds useful as immunomodulators” (BRISTOL-MYERS SQUIBB COMPANY, priority 2014, dated 2017).
# Target: PD-1/PD-L1 interaction (PD-1-Ig / PD-L1-His) (Homo sapiens (Human), UniProt Q9NZQ7)
# Assay: PD-1/PD-L1 Homogenous Time-Resolved Fluorescence (HTRF) binding assay
# Settings: PD-1/PD-L1 HTRF binding assay; numeric value; read-out: Range or IC50
# Outline: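 Human PD-L1-His (10 nM final) was pre-incubated with inhibitor for 15 min, then PD-1-Ig (20 nM final) was added for a further 15 min in dPBS with 0.1% BSA and 0.05% Tween-20. Binding was detected by HTRF using Eu-cryptate anti-Ig (1 nM) and APC anti-His (20 nM).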
# PD-1/PD-L1 interaction (PD-1-Ig / PD-L1-His), sequence (Q9NZQ7 other isoform, or with tags, fused parts or gaps): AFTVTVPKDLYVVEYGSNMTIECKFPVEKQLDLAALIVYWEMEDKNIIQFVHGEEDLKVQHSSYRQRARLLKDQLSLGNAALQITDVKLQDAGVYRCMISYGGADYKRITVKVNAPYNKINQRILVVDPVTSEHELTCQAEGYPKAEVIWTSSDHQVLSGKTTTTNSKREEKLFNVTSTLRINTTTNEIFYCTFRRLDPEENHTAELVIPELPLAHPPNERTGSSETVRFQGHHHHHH
row,IC50,SMILES
1,81.2 nM,"CC(=O)NCCNCc1ccc(OCc2cccc(-c3ccccc3)c2C)cc1OCc1cc(C#N)ccc1F [Example 1095, N-(2-((2-((5-cyano-2-fluorobenzyl)oxy)-4-((2-methyl-[1,1′-biphenyl]-3-yl)methoxy)benzyl)amino)ethyl)acetamide]"
2,624 nM,"CC(=O)NCCNCc1ccc(OCc2cccc(-c3ccccc3)c2C)cc1OCc1ccc(F)c(C)c1 [Example 1108, N-(2-((2-((4-fluoro-3-methylbenzyl)oxy)-4-((2-methyl-[1,1′-biphenyl]-3-yl)methoxy)benzyl)amino)ethyl)acetamide]"

# Same assay, conditions: PD-1/PD-L1 HTRF binding assay; value given as range class; read-out: Range or IC50
row,IC50,SMILES
1,100 to 20000 nM,"COc1ccc(F)c(COc2cc(OCc3cccc(-c4ccccc4)c3C)ccc2CNCCNC(C)=O)c1F [Example 1092, N-(2-((2-((2,6-difluoro-3-methoxybenzyl)oxy)-4-((2-methyl-[1,1′-biphenyl]-3-yl)methoxy)benzyl)amino)ethyl)acetamide]"
2,100 to 20000 nM,"COc1cc(COc2cc(OCc3cccc(-c4ccccc4)c3C)ccc2CNCCNC(C)=O)ccc1F [Example 1093, N-(2-((2-((4-fluoro-3-methoxybenzyl)oxy)-4-((2-methyl-[1,1′-biphenyl]-3-yl)methoxy)benzyl)amino)ethyl)acetamide]"
3,100 to 20000 nM,"CC(=O)NCCNCc1ccc(OCc2cccc(-c3ccccc3)c2C)cc1OCc1cc(C)ccc1F [Example 1094, N-(2-((2-((2-fluoro-5-methylbenzyl)oxy)-4-((2-methyl-[1,1′-biphenyl]-3-yl)methoxy)benzyl)amino)ethyl)acetamide]"
4,100 to 20000 nM,"COc1cc(F)cc(COc2cc(OCc3cccc(-c4ccccc4)c3C)ccc2CNCCNC(C)=O)c1 [Example 1096, N-(2-((2-((3-fluoro-5-methoxybenzyl)oxy)-4-((2-methyl-[1,1′-biphenyl]-3-yl)methoxy)benzyl)amino)ethyl)acetamide]"
5,100 to 20000 nM,"CC(=O)NCCNCc1ccc(OCc2cccc(-c3ccccc3)c2C)cc1OCc1ccc(Br)cc1C#N [Example 1097, N-(2-((2-((4-bromo-2-cyanobenzyl)oxy)-4-((2-methyl-[1,1′-biphenyl]-3-yl)methoxy)benzyl)amino)ethyl)acetamide]"
6,100 to 20000 nM,"CC(=O)NCCNCc1ccc(OCc2cccc(-c3ccccc3)c2C)cc1OCc1ccc2[nH]ncc2c1 [Example 1098, N-(2-((2-((1H-indazol-5-yl)methoxy)-4-((2-methyl-[1,1′-biphenyl]-3-yl)methoxy)benzyl)amino)ethyl)acetamide]"
7,100 to 20000 nM,"CC(=O)NCCNCc1ccc(OCc2cccc(-c3ccccc3)c2C)cc1OCc1ccc2c(cnn2C2CCCCO2)c1 (stereo not shown) [Example 1099, N-(2-((4-((2-methyl-[1,1′-biphenyl]-3-yl)methoxy)-2-((1-(tetrahydro-2H-pyran-2-yl)-1H-indazol-5-yl)methoxy)benzyl)amino)ethyl)acetamide]"
8,100 to 20000 nM,"CC(=O)NCCNCc1ccc(OCc2cccc(-c3ccccc3)c2C)cc1OCc1ccncn1 [Example 1100, N-(2-((4-((2-methyl-[1,1′-biphenyl]-3-yl)methoxy)-2-(pyrimidin-4-ylmethoxy)benzyl)amino)ethyl)acetamide]"
9,100 to 20000 nM,"COC(=O)Cc1cccc(COc2cc(OCc3cccc(-c4ccccc4)c3C)ccc2CNCCNC(C)=O)c1 [Example 1101, methyl 2-(3-((2-(((2-acetamidoethyl)amino)methyl)-5-((2-methyl-[1,1′-biphenyl]-3-yl)methoxy)phenoxy)methyl)phenyl)acetate]"
10,100 to 20000 nM,"CC(=O)NCCNCc1ccc(OCc2cccc(-c3ccccc3)c2C)cc1OCc1ccc2cn[nH]c2c1 [Example 1102, N-(2-((2-((1H-indazol-6-yl)methoxy)-4-((2-methyl-[1,1′-biphenyl]-3-yl)methoxy)benzyl)amino)ethyl)acetamide]"
11,100 to 20000 nM,"COC(=O)c1ccc(F)c(COc2cc(OCc3cccc(-c4ccccc4)c3C)ccc2CNCCNC(C)=O)c1 [Example 1103, methyl 3-((2-(((2-acetamidoethyl)amino)methyl)-5-((2-methyl-[1,1′-biphenyl]-3-yl)methoxy)phenoxy)methyl)-4-fluorobenzoate]"
12,100 to 20000 nM,"CC(=O)NCCNCc1ccc(OCc2cccc(-c3ccccc3)c2C)cc1OCc1noc(C)n1 [Example 1104, N-(2-((2-((5-methyl-1,2,4-oxadiazol-3-yl)methoxy)-4-((2-methyl-[1,1′-biphenyl]-3-yl)methoxy)benzyl)amino)ethyl)acetamide]"
13,100 to 20000 nM,"CC(=O)NCCNCc1ccc(OCc2cccc(-c3ccccc3)c2C)cc1OCc1cccc(C(=O)OC(C)(C)C)c1 [Example 1105, tert-butyl 3-((2-(((2-acetamidoethyl)amino)methyl)-5-((2-methyl-[1,1′-biphenyl]-3-yl)methoxy)phenoxy)methyl)benzoate]"
14,100 to 20000 nM,"CC(=O)NCCNCc1ccc(OCc2cccc(-c3ccccc3)c2C)cc1OCc1cc(F)cc(OC(F)(F)F)c1 [Example 1106, N-(2-((2-((3-fluoro-5-(trifluoromethoxy)benzyl)oxy)-4-((2-methyl-[1,1′-biphenyl]-3-yl)methoxy)benzyl)amino)ethyl)acetamide]"
15,100 to 20000 nM,COc1cc(COc2cc(OCc3cccc(-c4ccccc4)c3C)ccc2CNCCNC(C)=O)cc(OC)c1 [Example 1107]
16,100 to 20000 nM,CC(=O)NCCNCc1ccc(OCc2cccc(-c3ccccc3)c2C)cc1OCc1cc(Cl)ccc1F [Example 1109]
17,100 to 20000 nM,"CC(=O)NCCNCc1ccc(OCc2cccc(-c3ccccc3)c2C)cc1OCc1ccc(F)c(Cl)c1 [Example 1110, N-(2-((2-((3-chloro-4-fluorobenzyl)oxy)-4-((2-methyl-[1,1′-biphenyl]-3-yl)methoxy)benzyl)amino)ethyl)acetamide]"
18,10 to 100 nM,"CC(=O)NCCNCc1ccc(OCc2cccc(-c3ccccc3)c2C)cc1OCc1ccncc1 [Example 1111, N-(2-((4-((2-methyl-[1,1′-biphenyl]-3-yl)methoxy)-2-(pyridin-4-ylmethoxy)benzyl)amino)ethyl)acetamide]"
19,100 to 20000 nM,"CC(=O)NCCNCc1ccc(OCc2cccc(-c3ccccc3)c2C)cc1OCc1cccc(-n2cccc2)c1 [Example 1112, N-(2-((2-((3-(1H-pyrrol-1-yl)benzyl)oxy)-4-((2-methyl-[1,1′-biphenyl]-3-yl)methoxy)benzyl)amino)ethyl)acetamide]"
20,100 to 20000 nM,"CC(=O)NCCNCc1ccc(OCc2cccc(-c3ccccc3)c2C)cc1OCc1cc(C)cc(F)c1 [Example 1113, N-(2-((2-((3-fluoro-5-methylbenzyl)oxy)-4-((2-methyl-[1,1′-biphenyl]-3-yl)methoxy)benzyl)amino)ethyl)acetamide]"
21,10 to 100 nM,"CC(=O)NCCNCc1ccc(OCc2cccc(-c3ccccc3)c2C)cc1OCc1ccc(F)c(C#N)c1 [Example 1114, N-(2-((2-((3-cyano-4-fluorobenzyl)oxy)-4-((2-methyl-[1,1′-biphenyl]-3-yl)methoxy)benzyl)amino)ethyl)acetamide]"
22,100 to 20000 nM,"CC(=O)NCCNCc1ccc(OCc2cccc(-c3ccccc3)c2C)cc1OCc1cccc(OC(F)F)c1 [Example 1116, N-(2-((2-((3-(difluoromethoxy)benzyl)oxy)-4-((2-methyl-[1,1′-biphenyl]-3-yl)methoxy)benzyl)amino)ethyl)acetamide]"
23,10 to 100 nM,"CC(=O)NCCNCc1ccc(OCc2cccc(-c3ccccc3)c2C)cc1OCc1cccnc1 [Example 1117, N-(2-((4-((2-methyl-[1,1′-biphenyl]-3-yl)methoxy)-2-(pyridin-3-ylmethoxy)benzyl)amino)ethyl)acetamide]"
